According to patent US8889876B2, “Histone deacetylase inhibitors and uses thereof” (Jiangsu Hengyi Pharmaceutical Co., Ltd., priority 2008, dated 2014):

Experiments:
histone deacetylase = experiment: in vitro inhibition of histone deacetylase by HDAC inhibitor screening kit (Biovision K340-100); format: biochemical
Procedure: An assay for determining the in vitro inhibition activity of the compound on histone deacetylase is conducted according to the specification of HDAC inhibitor screeing kid (Biovision Company/Catalog #K340-100). […]

[1] = tested on: Hut78 T-cell Leukemia cell; experiment: CCK-8 proliferation inhibition, Hut78; format: cell-based; details: for inhibition at 10 µM / inhibition at 100 µM: Homo sapiens, read-out: Hut-78 (inhibition %); for inhibition at 10 µM: HuT78, 10 μM; for inhibition at 100 µM: HuT78, 100 μM
Procedure: (§1) Detecting the inhibition rate of the compound concentrations of 100 μM and 10 μM to Hut78 T-cell Leukemia cell, Jurkat E6-1 human T-cell lymphoma, PANC-1 human pancreatic cancer cells, A549 human lung cancer cells, K562 human chronic myeloid leukemia cells, Hep3B2.1-7 human liver cancer cells, MDA-MB-435s human breast cancer cells, Colo320 human rectal cancer cells and PC-3 human prostate cancer using CCK-8 method.

[2] = tested on: Hep3B2.1-7 human liver cancer cells; experiment: CCK-8 proliferation inhibition, Hep3B2.1-7; format: cell-based; details: CCK-8 method; for inhibition at 10 µM / inhibition at 100 µM: Homo sapiens, Hep3B
Procedure: as §1

[3] = tested on: PANC-1 human pancreatic cancer cells; experiment: CCK-8 proliferation inhibition, PANC-1; format: cell-based; details: for inhibition at 10 µM / inhibition at 100 µM: Homo sapiens; for inhibition at 10 µM: PANC-1, 10 μM; for inhibition at 100 µM: PANC-1, 100 μM
Procedure: as §1

[4] = tested on: Colo320 human rectal cancer cells; experiment: CCK-8 proliferation inhibition, Colo320; format: cell-based; details: CCK-8 method; for inhibition at 10 µM / inhibition at 100 µM: Homo sapiens, COLO 320
Procedure: as §1

[5] = tested on: A549 human lung cancer cells; experiment: CCK-8 proliferation inhibition, A549; format: cell-based; details: CCK-8 method; for inhibition at 10 µM / inhibition at 100 µM: Homo sapiens, A549
Procedure: as §1

[6] = tested on: MDA-MB-435s human breast cancer cells; experiment: CCK-8 proliferation inhibition, MDA-MB-435s; format: cell-based; details: CCK-8 method; for inhibition at 10 µM / inhibition at 100 µM: Homo sapiens, MDA-MB-435S
Procedure: as §1

[7] = tested on: Jurkat E6-1 human T-cell lymphoma; experiment: CCK-8 proliferation inhibition, Jurkat E6-1; format: cell-based; details: for inhibition at 10 µM / inhibition at 100 µM: Homo sapiens; for inhibition at 10 µM: Jurkat E6.1, 10 μM; for inhibition at 100 µM: Jurkat E6.1, 100 μM
Procedure: as §1

[8] = tested on: K562 human chronic myeloid leukemia cells; experiment: CCK-8 proliferation inhibition, K562; format: cell-based; details: for inhibition at 10 µM / inhibition at 100 µM: Homo sapiens; for inhibition at 10 µM: K562, 10 μM; for inhibition at 100 µM: K562, 100 μM
Procedure: as §1

[9] = tested on: PC-3 human prostate cancer; experiment: CCK-8 proliferation inhibition, PC-3; format: cell-based; details: CCK-8 method; for inhibition at 10 µM / inhibition at 100 µM: Homo sapiens
Procedure: as §1

Compound	Inhibition rate(%) (histone deacetylase; 3.91 μM)	Inhibition rate(%) (histone deacetylase; 62.5 μM)	inhibition at 10 µM [1]	inhibition at 100 µM [1]	inhibition at 10 µM ([2]; compound concentration 10 μM)	inhibition at 100 µM ([2]; compound concentration 100 μM)	inhibition at 10 µM [3]	inhibition at 100 µM [3]	inhibition at 10 µM ([4]; compound concentration 10 μM)	inhibition at 100 µM ([4]; compound concentration 100 μM)	inhibition at 10 µM ([5]; compound concentration 10 μM)	inhibition at 100 µM ([5]; compound concentration 100 μM)	inhibition at 10 µM ([6]; compound concentration 10 μM)	inhibition at 100 µM ([6]; compound concentration 100 μM)	inhibition at 10 µM [7]	inhibition at 100 µM [7]	inhibition at 10 µM [8]	inhibition at 100 µM [8]	inhibition at 10 µM ([9]; compound concentration 10 μM)	inhibition at 100 µM ([9]; compound concentration 100 μM)	further results
Nc1cnccc1NC(=O)c1ccc(CNC(=O)OCc2ccccc2)cc1 [V-7]	9.5%	36.0%	18.2%	72.9%	-12.3%	59.2%	5.7%	5.5%	-7.1%	47.2%	-7.8%	72.3%	4.5%	85.5%	27.1%	96%	51%	85.1%	0.6%	36.9%	Inhibition rate(%) (histone deacetylase; 2 mM): 78.2%
Nc1ncccc1NC(=O)c1ccc(CNC(=O)OCc2ccccc2)cc1 [V-8, N-(2-amino-3-pyridyl)-4-(benzyloxyacylaminomethyl)benzamide]	6.3%	10.3%	6.4%	15.8%	-10.2%	-12.1%	14.4%	11.9%	7.1%	16.8%	-43.9%	-19.4%	-20.7%	-10.4%	5.4%	23.7%	-1.3%	38.1%	5.2%	15.9%	Inhibition rate(%) (histone deacetylase; 2 mM): 35.3%
Cc1ccc(COC(=O)NCc2ccc(C(=O)Nc3cccnc3N)cc2)cc1 [V-9, N-(2-amino-3-pyridyl)-4-[(4-methylbenzyloxyacyl)aminomethyl]benzamide]	2.8%	16.8%	15%	43.9%	7.3%	66.6%	10.5%	45.9%	13%	45.3%	-44.3%	-13.1%	-14.3%	84.1%	62.2%	87.9%	49.4%	83.2%	0%	66.7%	Inhibition rate(%) (histone deacetylase; 2 mM): 36.7%
COc1cc(COC(=O)NCc2ccc(C(=O)Nc3cccnc3N)cc2)cc(OC)c1OC [V-13, N-(2-amino-3-pyridyl)-4-[(3,4,5-trimethoxybenzyloxyacyl)aminomethyl]benzamide]	1.9%	7.8%	10.8%	24%	27%	26.2%	22.3%	26.4%	4.4%	4.2%	24.6%	42.3%	-11.9%	11.8%	0.9%	22.8%	-2.8%	30.3%	5.1%	19.3%	Inhibition rate(%) (histone deacetylase; 2 mM): 50.0%
COc1cc(CCC(=O)NCc2ccc(C(=O)Nc3ccnc(N)c3)cc2)cc(OC)c1OC [V-55, N-(2-amino-4-pyridyl)-4-[3-(3,4,5-methoxyphenyl)propionylaminomethyl]benzamide]	–	–	–	–	–	–	–	–	–	–	–	–	–	–	–	–	–	–	–	–	Hut-78 (inhibition %) ([1]; 10 μM): −5.5%; Hut-78 (inhibition %) ([1]; 100 μM): −2.4%; Hep3B (inhibition %) ([2]; compound concentration 10 μM): 21.7%; Hep3B (inhibition %) ([2]; compound concentration 100 μM): 7.2%; PANC-1 (inhibition %) ([3]; 10 μM): −7.5%; PANC-1 (inhibition %) ([3]; 100 μM): −6.1%; Colo320 (inhibition %) ([4]; compound concentration 10 μM): −11.2%; Colo320 (inhibition %) ([4]; compound concentration 100 μM): −2.8%; A549 (inhibition %) ([5]; compound concentration 10 μM): −16.5%; A549 (inhibition %) ([5]; compound concentration 100 μM): −15.3%; 435s(inhibition %) ([6]; compound concentration 10 μM): 6.5%; 435s(inhibition %) ([6]; compound concentration 100 μM): 4.9%; Jurkat E6-1 (inhibition %) ([7]; 10 μM): 10.6%; Jurkat E6-1 (inhibition %) ([7]; 100 μM): 0.6%; K562 (inhibition %) ([8]; 10 μM): −12.8%; K562 (inhibition %) ([8]; 100 μM): −17.4%; PC-3 (inhibition %) ([9]; compound concentration 10 μM): 13.3%; PC-3 (inhibition %) ([9]; compound concentration 100 μM): 10.9%
Nc1ncccc1NC(=O)c1ccc(CNC(=O)CCc2ccc(F)cc2)cc1 [V-60, N-(2-amino-3-pyridyl)-4-[3-(4-fluorophenyl)propionylaminomethyl]benzamide]	–	–	11.8%	28.5%	9.9%	31.7%	27.3%	26.1%	-5.4%	2.3%	3.7%	12.2%	-7.8%	-3.4%	11%	33.3%	14.6%	42.7%	1%	8.1%	–
COc1ccc(/C=C/C(=O)NCc2ccc(C(=O)Nc3ccncc3N)cc2)cc1OC [V-94]	–	–	12.9%	66.7%	4.5%	69.4%	6%	27.3%	-6.4%	17.8%	9.1%	58.4%	15.1%	77%	65.6%	95.6%	35%	85.7%	54.2%	87.8%	–
N-(2-amino-3-pyridyl)-4-[(2-naphthylmethoxyacyl)aminomethyl)benzamide [V-23]	–	–	–	–	–	–	–	–	–	–	–	–	–	–	–	–	–	–	–	–	Hut-78 (inhibition %) ([1]; 10 μM): 20.7%; Hut-78 (inhibition %) ([1]; 100 μM): 10.4%; Hep3B (inhibition %) ([2]; compound concentration 10 μM): 16.3%; Hep3B (inhibition %) ([2]; compound concentration 100 μM): 11.2%; PANC-1 (inhibition %) ([3]; 10 μM): 7.2%; PANC-1 (inhibition %) ([3]; 100 μM): 0.5%; Colo320 (inhibition %) ([4]; compound concentration 10 μM): 15.3%; Colo320 (inhibition %) ([4]; compound concentration 100 μM): 3.9%; A549 (inhibition %) ([5]; compound concentration 10 μM): 4.7%; A549 (inhibition %) ([5]; compound concentration 100 μM): 3.5%; 435s(inhibition %) ([6]; compound concentration 10 μM): 21.6%; 435s(inhibition %) ([6]; compound concentration 100 μM): 21.0%; Jurkat E6-1 (inhibition %) ([7]; 10 μM): 33.7%; Jurkat E6-1 (inhibition %) ([7]; 100 μM): 13.9%; K562 (inhibition %) ([8]; 10 μM): 27.2%; K562 (inhibition %) ([8]; 100 μM): 11.9%; PC-3 (inhibition %) ([9]; compound concentration 10 μM): 10.9%; PC-3 (inhibition %) ([9]; compound concentration 100 μM): 8.6%
